Results taken from ChEMBL document CHEMBL1909046, “DrugMatrix in vitro pharmacology data”.

Columns and labels:
Leukotriene C4 synthase = target: T1, Leukotriene C4 synthase (Cavia porcellus, UniProt A6XA80); assay type: tissue-based, Lung;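 also: enzyme inhibition assay of leukotriene C4 synthase, using LTA4 as the substrate; in other assays of this panel Not Active means under 50% inhibition at 10 µM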
T1 sequence (A6XA80 whole entry): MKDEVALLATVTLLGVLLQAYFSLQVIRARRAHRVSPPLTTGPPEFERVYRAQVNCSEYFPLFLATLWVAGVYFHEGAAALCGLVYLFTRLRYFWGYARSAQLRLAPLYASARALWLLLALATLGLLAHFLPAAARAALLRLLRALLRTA

Acetylcholinesterase = Acetylcholinesterase (Homo sapiens, UniProt P22303); experiment: DRUGMATRIX: Acetylcholinesterase enzyme inhibition (substrate: acetylthiocholine); assay type: cell-based, HEK293; conditions: hek293; Not Active = under 50% inhibition at 10 µM
[1] = target: T2, Alpha-1D adrenergic receptor (Homo sapiens, UniProt P25100); assay type: cell membranes, HEK293, Membrane; also: in other assays of this panel Not Active means under 50% inhibition at 10 µM
T2 sequence (P25100 whole entry): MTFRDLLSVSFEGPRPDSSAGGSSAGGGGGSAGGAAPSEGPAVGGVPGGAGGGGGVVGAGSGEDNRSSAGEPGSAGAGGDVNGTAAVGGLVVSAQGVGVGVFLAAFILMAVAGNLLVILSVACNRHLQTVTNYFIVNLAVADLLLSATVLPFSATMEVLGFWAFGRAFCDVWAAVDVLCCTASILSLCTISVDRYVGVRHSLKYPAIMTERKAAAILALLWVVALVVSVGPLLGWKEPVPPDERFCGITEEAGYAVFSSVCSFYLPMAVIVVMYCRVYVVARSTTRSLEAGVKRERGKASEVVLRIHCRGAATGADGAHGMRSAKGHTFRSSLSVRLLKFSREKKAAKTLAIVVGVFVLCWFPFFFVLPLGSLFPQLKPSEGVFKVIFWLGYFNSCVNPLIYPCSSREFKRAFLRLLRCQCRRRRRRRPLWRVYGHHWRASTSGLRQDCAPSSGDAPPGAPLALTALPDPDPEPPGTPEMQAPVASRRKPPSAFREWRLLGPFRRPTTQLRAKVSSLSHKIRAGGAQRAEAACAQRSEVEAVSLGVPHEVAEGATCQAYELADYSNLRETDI

[2] = target: Protein phosphatase 3 catalytic subunit alpha (Homo sapiens, UniProt Q08209); design: species or system Escherichia coli;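 also: inhibition of calcineurin (PP2B) enzyme activity, measured with DiFMUP as the substrate; in other assays of this panel Not Active means under 50% inhibition at 10 µM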
Melanocortin receptor 5 = Melanocortin receptor 5 (Homo sapiens, UniProt P33032); assay type: cell membranes, HEK293, Membrane; also: in other assays of this panel Not Active means under 50% inhibition at 10 µM
[3] = DRUGMATRIX: Calcium Channel Type L, Dihydropyridine radioligand binding (ligand: [3H] Nitrendipine); assay type: cell membranes, Rattus norvegicus, Wistar, Cerebral cortex, Membrane; conditions: Not Active = under 50% inhibition at 10 µM

Sequence of Melanocortin receptor 5 (P33032 whole entry): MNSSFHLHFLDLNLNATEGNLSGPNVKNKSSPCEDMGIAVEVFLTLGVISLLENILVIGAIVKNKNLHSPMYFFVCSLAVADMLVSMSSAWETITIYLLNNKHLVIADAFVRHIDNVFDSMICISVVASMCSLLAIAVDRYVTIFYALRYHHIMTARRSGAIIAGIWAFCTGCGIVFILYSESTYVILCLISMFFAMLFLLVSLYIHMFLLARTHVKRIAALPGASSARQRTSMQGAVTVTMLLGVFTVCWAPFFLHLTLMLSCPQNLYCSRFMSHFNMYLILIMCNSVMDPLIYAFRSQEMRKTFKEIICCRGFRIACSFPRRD
Sequence of Acetylcholinesterase (P22303 whole entry): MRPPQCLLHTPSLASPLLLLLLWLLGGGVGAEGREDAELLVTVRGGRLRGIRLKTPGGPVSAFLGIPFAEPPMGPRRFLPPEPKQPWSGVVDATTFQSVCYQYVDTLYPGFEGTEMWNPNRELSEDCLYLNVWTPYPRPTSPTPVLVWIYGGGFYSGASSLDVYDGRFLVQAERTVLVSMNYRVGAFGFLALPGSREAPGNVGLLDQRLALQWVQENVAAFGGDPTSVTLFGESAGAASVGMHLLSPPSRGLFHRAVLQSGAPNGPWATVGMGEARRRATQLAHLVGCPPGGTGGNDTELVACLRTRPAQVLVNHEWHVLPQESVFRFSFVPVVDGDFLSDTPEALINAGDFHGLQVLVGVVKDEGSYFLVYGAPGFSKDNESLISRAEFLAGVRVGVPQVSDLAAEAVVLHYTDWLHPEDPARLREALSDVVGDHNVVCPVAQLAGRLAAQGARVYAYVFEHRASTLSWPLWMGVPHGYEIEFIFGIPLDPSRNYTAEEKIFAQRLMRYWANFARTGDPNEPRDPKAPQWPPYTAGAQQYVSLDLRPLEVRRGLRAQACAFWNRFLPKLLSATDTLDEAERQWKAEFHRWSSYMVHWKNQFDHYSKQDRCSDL

Structure (SMILES) | IC50 (Leukotriene C4 synthase) | IC50 (Acetylcholinesterase) | IC50 ([1]; hek293) | IC50 [2] | IC50 (Melanocortin receptor 5; hek293) | IC50 [3] | Ki [3] | IC50 ([1]; read-out: IC50) [µM] | Ki ([1]; read-out: Ki) [µM] | IC50 (Melanocortin receptor 5; read-out: IC50) [µM] | Ki (Melanocortin receptor 5; read-out: Ki) [µM]
C[C@@H]1C[C@H]2[C@@H]3CCC4=CC(=O)C=C[C@]4(C)[C@@]3(F)[C@@H](O)C[C@]2(C)[C@@]1(O)C(=O)CO [DEXAMETHASONE] | Not Active | Not Active | Not Active | Not Active | Not Active | Not Active | Not Active |  |  |  | 
CN(C)CC[C@@H](c1ccc(Cl)cc1)c1ccccn1 [DEXCHLORPHENIRAMINE] | Not Active | Not Active |  | Not Active | Not Active | Not Active | Not Active | 33.7 | 16.6 |  | 
C[C@@H]1CC[C@@]2(OC1)O[C@H]1[C@@H](O)[C@H]3[C@@H]4CC[C@H]5C[C@@H](O[C@@H]6O[C@H](CO)[C@H](O[C@@H]7O[C@H](CO)C(O)[C@H](O[C@@H]8OC[C@@H](O)[C@H](O)[C@H]8O)[C@H]7O[C@@H]7O[C@H](CO)[C@H](O)[C@H](O[C@@H]8O[C@H](CO)[C@@H](O)[C@H](O)[C@H]8O)[C@H]7O)[C@H](O)[C@H]6O)[C@H](O)C[C@]5(C)[C@H]4CC[C@]3(C)[C@H]1[C@@H]2C (some centres undefined) [DIGITONIN] | Not Active | Not Active | Not Active | Not Active |  | Not Active | Not Active |  |  | 3.88 | 3.64
OC(CCCN1CCCCC1)(c1ccccc1)c1ccccc1 [DIPHENIDOL] | Not Active | Not Active | Not Active | Not Active | Not Active | Not Active | Not Active |  |  |  | 
C[C@H]1O[C@@H](n2cc(F)c(=O)[nH]c2=O)[C@H](O)[C@@H]1O [DOXIFLURIDINE] | Not Active | Not Active | Not Active | Not Active | Not Active | Not Active | Not Active |  |  |  | 
Cn1c(=O)c2c(ncn2CC(O)CO)n(C)c1=O (centres undefined) [DYPHYLLINE] | Not Active | Not Active | Not Active | Not Active | Not Active | Not Active | Not Active |  |  |  | 
CC[C@H]1CN2CCc3cc(OC)c(OC)cc3[C@@H]2C[C@@H]1C[C@H]1NCCc2cc(OC)c(OC)cc21 [EMETINE] | Not Active | Not Active | Not Active | Not Active | Not Active | Not Active | Not Active |  |  |  | 
C[C@@H](CO)NC(=O)[C@@H]1C=C2c3cccc4[nH]cc(c34)C[C@H]2N(C)C1 [ERGONOVINE] | Not Active | Not Active | Not Active | Not Active | Not Active | Not Active | Not Active |  |  |  | 
COC(=O)CCc1ccc(OCC(O)CNC(C)C)cc1 (centres undefined) [ESMOLOL] | Not Active | Not Active | Not Active | Not Active | Not Active | Not Active | Not Active |  |  |  | 
CCC1(C)CC(=O)NC1=O (centres undefined) [ETHOSUXIMIDE] | Not Active | Not Active | Not Active | Not Active | Not Active | Not Active | Not Active |  |  |  | 
C#C[C@]1(OC(C)=O)CC[C@H]2[C@@H]3CCC4=C[C@@H](OC(C)=O)CC[C@@H]4[C@H]3CC[C@@]21C [ETHYNODIOL DIACETATE] | Not Active | Not Active | Not Active | Not Active | Not Active | Not Active | Not Active |  |  |  | 
COc1cc([C@@H]2c3cc4c(cc3[C@@H](O[C@@H]3O[C@@H]5CO[C@@H](C)O[C@H]5[C@H](O)[C@H]3O)[C@H]3COC(=O)[C@H]23)OCO4)cc(OC)c1O [ETOPOSIDE] | Not Active | Not Active | Not Active | Not Active | Not Active | Not Active | Not Active |  |  |  | 
C=CCc1ccc(O)c(OC)c1 [EUGENOL] | Not Active | Not Active | Not Active | Not Active | Not Active | Not Active | Not Active |  |  |  | 
CC(C(=O)O)c1cccc(Oc2ccccc2)c1 (centres undefined) [FENOPROFEN] | Not Active | Not Active | Not Active | Not Active | Not Active | Not Active | Not Active |  |  |  | 
CC(C)(C)NC(=O)[C@H]1CC[C@H]2[C@@H]3CC[C@H]4NC(=O)C=C[C@]4(C)[C@H]3CC[C@]12C [FINASTERIDE] | Not Active | Not Active | Not Active | Not Active | Not Active | Not Active | Not Active |  |  |  | 
Nc1ccn([C@@H]2O[C@H](CO)[C@@H](O)C2(F)F)c(=O)n1 [GEMCITABINE] | Not Active | Not Active | Not Active | Not Active | Not Active | Not Active | Not Active |  |  |  | 

Structure (SMILES) | IC50 (Leukotriene C4 synthase) | IC50 (Acetylcholinesterase) | IC50 ([1]; hek293) | IC50 [2] | IC50 (Melanocortin receptor 5; hek293) | IC50 [3] | Ki [3] | IC50 ([1]; read-out: IC50) [µM] | Ki ([1]; read-out: Ki) [µM] | IC50 (Melanocortin receptor 5; read-out: IC50) [µM] | Ki (Melanocortin receptor 5; read-out: Ki) [µM]
CC(C)=CCC/C(C)=C/CO [GERANIOL] | Not Active | Not Active | Not Active | Not Active | Not Active | Not Active | Not Active |  |  |  | 
N=C(N)NC(=O)Cc1c(Cl)cccc1Cl [GUANFACINE] | Not Active | Not Active | Not Active | Not Active | Not Active | Not Active | Not Active |  |  |  | 
NNc1nncc2ccccc12 [HYDRALAZINE] | Not Active | Not Active | Not Active | Not Active | Not Active | Not Active | Not Active |  |  |  | 
CC(=O)[C@@]1(O)CC[C@H]2[C@@H]3CCC4=CC(=O)CC[C@]4(C)[C@H]3CC[C@@]21C [HYDROXYPROGESTERONE] | Not Active | Not Active | Not Active | Not Active | Not Active | Not Active | Not Active |  |  |  | 
COC1=C(OC)C(=O)C(CCCCCCCCCCO)=C(C)C1=O [IDEBENONE] | Not Active | Not Active | Not Active | Not Active | Not Active | Not Active | Not Active |  |  |  | 
CC(C)NNC(=O)c1ccncc1 [IPRONIAZID] | Not Active | Not Active | Not Active | Not Active | Not Active | Not Active | Not Active |  |  |  | 
Cc1c(OCC(F)(F)F)ccnc1C[S+]([O-])c1nc2ccccc2[nH]1 (centres undefined) [LANSOPRAZOLE] | Not Active | Not Active | Not Active | Not Active | Not Active | Not Active | Not Active |  |  |  | 
O=c1cc(N2CCOCC2)oc2c(-c3ccccc3)cccc12 [LY-294002] | Not Active | Not Active | Not Active | Not Active | Not Active | Not Active | Not Active |  |  |  | 
COc1ccc2[nH]cc(CCNC(C)=O)c2c1 [MELATONIN] | Not Active | Not Active | Not Active | Not Active | Not Active | Not Active | Not Active |  |  |  | 
NC(=O)C[S+]([O-])C(c1ccccc1)c1ccccc1 (centres undefined) [MODAFINIL] | Not Active | Not Active | Not Active | Not Active | Not Active | Not Active | Not Active |  |  |  | 
CCN(CC)CCOCCC1=CCC2CC1C2(C)C (centres undefined) [MYRTECAINE] | Not Active | Not Active | Not Active | Not Active | Not Active | Not Active | Not Active |  |  |  | 
O=C(O)c1cccnc1Nc1cccc(C(F)(F)F)c1 [NIFLUMIC ACID] | Not Active | Not Active | Not Active | Not Active | Not Active | Not Active | Not Active |  |  |  | 
O=C(N/N=C/c1ccc([N+](=O)[O-])o1)c1cc([N+](=O)[O-])cc([N+](=O)[O-])c1O [NIFURSOL] | Not Active | Not Active | Not Active | Not Active | Not Active | Not Active | Not Active |  |  |  | 
COC(=O)Nc1nc2ccc(C(=O)c3cccs3)cc2[nH]1 [NOCODAZOLE] | Not Active | Not Active | Not Active | Not Active | Not Active | Not Active | Not Active |  |  |  | 
C#CC1(O)CC[C@H]2[C@@H]3CCC4=CC(=O)CC[C@@H]4[C@H]3CC[C@@]21CC (some centres undefined) [NORGESTREL] | Not Active | Not Active | Not Active | Not Active | Not Active | Not Active | Not Active |  |  |  | 
